These results are taken from ChEMBL document CHEMBL3301451, “MMV Malaria Box gametocyte functional viability assay screening”.

For orientation: inhibition means the change of the read-out against control, counted positive when it falls.

What all share (type): functional
Common to all, as to design: concentration or dose not given beside the values

The test system of one assay is Plasmodium berghei. Description: MMV: P. berghei-infected blood was withdrawn from mice by cardiac pucture before being immediately added to ookinete culture medium containing test compounds. 26 hr later, GFP-positive ookinetes were identified and counted by automated microscopy. All compounds were tested in 4 independent experiments and data presented here is the mean.

The test system of assay [1] is Plasmodium falciparum. Description: MMV: P. falciparum NF54 functionally mature Stage V gametocytes were incubated for 24 hr in the presence of the test compounds. Gamete formation was then triggered by addition of 2uM xantheurenic acid and temperature decrease to ~20C. Female gamete formation was recorded 24 hr later by automated microscopy detection of surface labelling of female gametes with a Cy3-conjugated antibody reactive to Pfs25. All compounds were tested in 4 independent experiments and data presented here is the mean. Particulars: NF54, 24 h.

In assay [2] the test system is Plasmodium falciparum. As to the kind of experiment: MMV: P. falciparum NF54 functionally mature Stage V gametocytes were incubated for 24 hr in the presence of the test compounds. Gamete formation was then triggered by addition of 2uM xantheurenic acid and temperature decrease to ~20C. Male gamete exflagellation was recorded and analysed by automated microscopy after 20 min. All compounds were tested in 4 independent experiments and data presented here is the mean.

Turning to `O=C(Nc1ccc(C23CC4CC(CC(c5ccccc5)(C4)C2)C3)cc1)c1cccs1`, the inhibition was -2.527% in the assay with Plasmodium berghei, -23.5% with Plasmodium falciparum [1] and 18.1% in the assay with Plasmodium falciparum [2].
Take `CSC1=NC(=Nc2c(C)cccc2C)C2(CCC(C(C)(C)C)CC2)N1c1ccc(Cl)cc1` (configuration not stated): the inhibition in the assay with Plasmodium berghei is 10.1%; with Plasmodium falciparum [1] it was -11.8%; in the assay with Plasmodium falciparum [2] it was 15.7%.
The matching figures for `O=C(c1ccccc1F)N(Cc1ccc(Cl)cc1)c1ccccn1`: -2.284%, -28.6% and 20.3%.
As to `CCOc1ccc(CCNC(=O)c2cccs2)cc1OCC`, the inhibition was found to be 8.759% in the assay on Plasmodium berghei, 2.16% with Plasmodium falciparum [1] and 22% with Plasmodium falciparum [2].
For `O=C(Nc1cccc(C2=NCCN2)c1)Nc1cccc(C2=NCCN2)c1` [IMIDOCARB], the inhibition with Plasmodium berghei was -13.35%; with Plasmodium falciparum [1], -30.2%; with Plasmodium falciparum [2], -36.7%.
The corresponding values for `COc1ccc(C2c3ccc4ccccc4c3Oc3ncn(CCCn4ccnc4)c(=N)c32)cc1OC` (configuration not stated) are 36.85%, -9.13% and 17.5%.
Take `COc1cccc(NC(=O)Cn2c(C)c(C#N)c3ccccc32)c1`: the inhibition was -1.894% in the assay with Plasmodium berghei, -23.6% with Plasmodium falciparum [1] and 21.9% in the assay on Plasmodium falciparum [2].
The corresponding values for `Cc1cc(Nc2cccc(F)c2)nc(NCc2ccccc2)n1` are 4.533%, -45.8% and 20.4%.
The corresponding values for `COc1ccc(C(=O)C(CCC(CNC(C)(C)C)C(=O)c2ccc(OC)cc2)CNC(C)(C)C)cc1` (configuration not stated) are -12.62%, 4.72% and 16.3%.
Regarding `CC(C)CNC(=O)c1c(N)n(CCc2ccccc2F)c2nc3ccccc3nc12`, the inhibition in the assay on Plasmodium berghei is -6.274%; in the assay with Plasmodium falciparum [1], -24.2%; in the assay with Plasmodium falciparum [2], 24.1%.
Turning to `COc1cccc(C2(C)Nc3ccccc3-c3nc4ccccc4n32)c1` (configuration not stated), the inhibition is 6.874% with Plasmodium berghei, 7.61% in the assay with Plasmodium falciparum [1] and -12.6% in the assay on Plasmodium falciparum [2].
The corresponding values for `Oc1c2c(nc3cc(-c4ccccc4)nn13)CCCC2` are 4.402%, -27.5% and 1.37%.
Consider `CCOc1cc(Cl)c(C(C)NC(=O)c2cccc(OC)c2)cc1OCC` (configuration not stated), for which the inhibition in the assay on Plasmodium berghei was -8.297%; in the assay with Plasmodium falciparum [1], -14.9%; in the assay on Plasmodium falciparum [2], 3.61%.
On to `CC(=O)Nc1nnc(SCc2c(C)cc(C(C)(C)C)cc2C)s1`, for which the inhibition in the assay on Plasmodium berghei was determined as 4.957%; in the assay with Plasmodium falciparum [1], 5.39%; with Plasmodium falciparum [2], 17.4%.
Turning to `CCn1c(SCC(=O)Nc2cc(C(F)(F)F)ccc2Cl)nc2ccccc2c1=O`, the results for the inhibition in the assay with Plasmodium berghei, in the assay on Plasmodium falciparum [1] and in the assay with Plasmodium falciparum [2] were -2.806%, -19.5% and 22.5%, respectively.
Consider `CN(C)c1ccc(N2C(N)=NC(N)=NC2(C)C)cc1`, for which the inhibition in the assay with Plasmodium berghei was -13.4%; with Plasmodium falciparum [1] it was -61.8%; in the assay on Plasmodium falciparum [2], 71.6%.
On to `c1ccc(/C2=N/c3ccccc3/N=C(/c3ccccc3)c3ccccc32)cc1`, for which the inhibition is 4.56% with Plasmodium berghei, 5.88% in the assay with Plasmodium falciparum [1] and 41.7% in the assay with Plasmodium falciparum [2].
On to `CCc1c(C)c(=N)c2ccccc2n1C.I`, for which the results for the inhibition in the assay on Plasmodium berghei, in the assay on Plasmodium falciparum [1] and with Plasmodium falciparum [2] were -36.84%, -14.1% and -21.8%, respectively.
The corresponding values for `CCOc1ccc(-n2cc(-c3ccccc3)c3c(SCc4cc(C)ccc4C)ncnc32)cc1` are -4.1%, -11.5% and 13%.
The matching figures for `CCN(CC)CCNc1ccnc2cc3ccccc3cc12.O=P(O)(O)O`: 2.138%, -24% and 9.43%.
Consider `CCCCCC(=O)N1c2ccccc2N=C2CC(c3ccc(OC)c(OC)c3)CC(O)=C2C1c1ccc(C(F)(F)F)cc1` (configuration not stated), for which the inhibition with Plasmodium berghei is -9.202%; in the assay with Plasmodium falciparum [1], -11.5%; with Plasmodium falciparum [2], 59.4%.
The matching figures for `CC1CCCCN1CCCNC(=O)c1ccc2c(c1)sc1nc(-c3ccc(F)cc3)cn12` (configuration not stated): 0.9156%, -12.6% and -15.9%.
On to `O=C(Nc1ccc(Cl)cc1)N1CCN(c2ccc3nncn3n2)CC1`, for which the figures for the inhibition with Plasmodium berghei, in the assay with Plasmodium falciparum [1] and with Plasmodium falciparum [2] were 8.279%, -16.6% and 25.9%, respectively.
Turning to `Cc1ccc(S(=O)(=O)c2c(COC(=O)c3cccc(C)c3)c(-c3ccccc3)nn2C)cc1`, the results for the inhibition with Plasmodium berghei, with Plasmodium falciparum [1] and with Plasmodium falciparum [2] were -10.49%, -31.3% and -0.37%, respectively.
Regarding `CCOc1c(Cl)cc(CNC(C)C(O)c2ccccc2)cc1OC` (configuration not stated), the inhibition in the assay on Plasmodium berghei is -12.71%; in the assay on Plasmodium falciparum [1], -16%; with Plasmodium falciparum [2] it was 11.3%.
In the case of `COc1ccc(C2=C(c3ccc(OC)cc3)C3(c4ccccc4)C(=O)C2(c2ccccc2)C2C(=O)N(c4ccc(C)cc4)C(=O)C23)cc1` (configuration not stated), the inhibition in the assay on Plasmodium berghei was -21.97%; in the assay on Plasmodium falciparum [1] it was 7.88%; in the assay with Plasmodium falciparum [2], -9%.
The matching figures for `CCOC(=O)c1c[nH]c2c(CC)cccc2c1=O`: -1.306%, 8.74% and 21.5%.
The matching figures for `COc1cc(CNCCc2ccc(Cl)cc2)cc(OC)c1O`: -10.96%, -40.5% and -14.1%.
The corresponding values for `CCOc1cc(Br)c(C(C)NC(=O)c2cccc(OC)c2)cc1OCC` (configuration not stated) are -20.12%, -28.3% and 10.3%.
Consider `CCOC(=O)c1cnc2c(C)cccc2c1Nc1ccc(C(C)=O)cc1`, for which the inhibition is 1.277% in the assay with Plasmodium berghei, -9.63% with Plasmodium falciparum [1] and 13% in the assay on Plasmodium falciparum [2].
For `CC(=O)c1sc(NC(=O)Nc2ccc(C)cc2C)nc1C`, the inhibition with Plasmodium berghei is -22.74%; in the assay with Plasmodium falciparum [1], -20.1%; with Plasmodium falciparum [2] it was -39.7%.
Take `Cc1ccc(NC(=O)Nc2cccc(Cl)c2)cc1F`: the inhibition is -16.5% with Plasmodium berghei, -4.87% in the assay on Plasmodium falciparum [1] and 2.14% in the assay with Plasmodium falciparum [2].
On to `c1ccc(-c2ccc(-c3nc4ccccc4[nH]3)cc2)cc1`, for which the inhibition in the assay with Plasmodium berghei is -1.667%; in the assay on Plasmodium falciparum [1] it was -7.69%; with Plasmodium falciparum [2], 15.6%.
For `COc1ccc(C2Sc3ccccc3N=C3C2=C(O)c2ccccc23)cc1` (configuration not stated), the inhibition stood at 68.07% with Plasmodium berghei, 0.279% with Plasmodium falciparum [1] and 32.2% in the assay on Plasmodium falciparum [2].
The matching figures for `CC(=O)NCCc1nc2ccccc2n1Cc1ccc(C(C)C)cc1`: -8.216%, -12.8% and -6.3%.
The matching figures for `CC1(c2ccccc2)Nc2ccccc2-c2nc3ccccc3n21` (configuration not stated): -11.28%, 0.151% and 11.7%.
Turning to `CCOC(=O)c1cnc2ccc(OC)cc2c1Nc1ccc(N2CCN(C)CC2)cc1`, the inhibition in the assay with Plasmodium berghei was -18.25%; in the assay with Plasmodium falciparum [1], -40%; with Plasmodium falciparum [2], -13.9%.
On to `Cc1cc(NCCN2CCCCC2)c2ccc3ccccc3c2n1`, for which the inhibition was -8.584% in the assay on Plasmodium berghei, 7.19% in the assay with Plasmodium falciparum [1] and -47.9% in the assay on Plasmodium falciparum [2].
On to `Cc1cc(C)cc(Nc2cc(C)nc3nc(C(F)(F)F)nn23)c1`, for which the values for the inhibition with Plasmodium berghei, in the assay on Plasmodium falciparum [1] and in the assay with Plasmodium falciparum [2] were -26.51%, -17.3% and 13.1%, respectively.
As for `Cc1cc(NC(=O)c2ccc(-c3ccccc3)cc2)no1`, the inhibition in the assay on Plasmodium berghei is -9.578%; in the assay on Plasmodium falciparum [1] it was -45.6%; in the assay on Plasmodium falciparum [2] it was 18.9%.
The matching figures for `Cc1ccc(C)c(Cn2c(N3CCC(C(=O)NCc4cccs4)CC3)nc3ccccc32)c1`: -3.865%, 9.01% and -124%.
The matching figures for `COc1ccc(OC)c(C2C3=C(CC(C)(C)CC3=O)N(c3ccc(Cl)c(Cl)c3)C3=C2C(=O)CC(C)(C)C3)c1`: -8.364%, -10.6% and -60%.
As for `CCCN(CCC)CC(O)COc1ccccc1C(=O)Nc1ccccc1` (configuration not stated), the inhibition was -27.28% with Plasmodium berghei, -10.5% in the assay with Plasmodium falciparum [1] and 0.885% in the assay with Plasmodium falciparum [2].
The matching figures for `Cc1cccc(-n2ncc3c(O)nc(-n4nc(C)cc4NC(=O)c4cc5ccccc5o4)nc32)c1`: -5.778%, -18.6% and 34.4%.
With `O=C(NNc1cc(N2CCCC2)nc(N2CCCC2)n1)c1ccccc1`, the inhibition with Plasmodium berghei was 26.51%; in the assay with Plasmodium falciparum [1], -28.5%; with Plasmodium falciparum [2], 30.4%.
As to `COc1ccc(C(=O)Nc2nonc2-c2ccc(OC)c(OC)c2)cc1Cl`, the results for the inhibition in the assay on Plasmodium berghei, in the assay with Plasmodium falciparum [1] and in the assay with Plasmodium falciparum [2] were 1.319%, -18.2% and 36.3%, respectively.
The matching figures for `COCCNC(=O)c1ccc(OC2CCN(Cc3ccc(F)c(F)c3)CC2)c(Cl)c1`: -5.71%, -14.3% and 16.4%.
In the case of `Cc1sc2ncnc(Sc3nc4ccccc4[nH]3)c2c1C`, the inhibition is 65.53% in the assay with Plasmodium berghei, -10.9% in the assay on Plasmodium falciparum [1] and 30.8% in the assay on Plasmodium falciparum [2].
As to `Cl.Oc1ccccc1CNCC12CC3CC(CC(C3)C1)C2`, the inhibition is -22.21% with Plasmodium berghei, -6.61% in the assay with Plasmodium falciparum [1] and -27.5% in the assay with Plasmodium falciparum [2].
